Reference: article PMC7751403, “Development of 2-oindolin-3-ylidene-indole-3-carbohydrazide derivatives as novel apoptotic and anti-proliferative agents towards colorectal cancer cells” (Journal of Enzyme Inhibition and Medicinal Chemistry, 2020)
pIC50: −log10 of the molar value. Where two headings read alike, the source gives them in different places.

How the values were obtained:
[1] = test system: HT-29 colorectal cancer cell line; test: MTT cell viability assay, HT-29 colorectal cancer cells; assay type: cell-based, human; conditions: for IC50: compounds 24 h (5FU 72 h), three separate experiments, read-out: IC50 (nM) HT-29
Method: (§1) HT29 and SW620 colorectal cancer cell lines and HFF-1 fibroblast (ATCC, Rockville, USA) were used. HT29 cells were cultured and maintained in Dulbecco’s Modified Eagle’s Medium (DMEM) (GIBCO, by Thermo Fischer Scientific, NY, USA) supplemented with 10% foetal bovine serum (FBS), 100 units/mL penicillin, and 100 µg streptomycin. SW620 and HFF-1 cells were cultured in Roswell Park Memorial Institute medium (RPMI-1640) (GIBCO, by Thermo scientific, NY, USA) supplemented with 10% FBS and 1% penicillin and streptomycin (Napolitano et al., 2015). All cultures were incubated at 37 °C and humidified atmosphere of 5% CO2.
(§2) The cytotoxicity effect of compounds on the colorectal cancer cell lines, HT29 and SW620 in addition to the normal human fibroblasts was measured by MTT (3–(4, 5-dimethylthiazol-2-yl)-2,5-diphenyltetrazolium bromide) (Sigma-Aldrich, St. Louis, MO, USA) as previously described. Briefly, cells were seeded in 96 well culture plates at 5000/well for HT29 and 10,000/well for SW620 for 24 h. Cells were then incubated with different compounds from WAG1 series (1–15) 24 h at 37 °C and humidified 5% CO2 incubator. Freshly prepared 10 µl of 3–(4,5-dimethylthiazol-2-yl)-2,5-diphenyltetrazolium bromide (MTT 5 mM) solution were added to the cells and further incubated for 2 h. Thereafter, 100 µl of dimethyl sulphoxide (DMSO) were added in each well and the crystals were dissolved through careful pipetting. In certain experiment, cells were treated different concentration of 5FU for 72 h. The absorbance of the product was measured at 540 nm using a Synergy™ 2 multi-mode microplate reader (Biotech, VA, USA). The experiments were performed in triplicate for each condition.

[2] = test system: SW-620 colorectal cancer cell line; test: MTT cell viability assay, SW-620 colorectal cancer cells; assay type: cell-based, human; conditions: for IC50: compounds 24 h (5FU 72 h), three separate experiments, read-out: IC50 (nM) SW-620
Method: as §1, §2

Bcl2 = test: Western blot of Bcl2 protein expression in SW-620 cells; assay type: cell-based, human; conditions: SW-620, two concentrations, 24 h, immunoblotting
Method: (§3) All cells were seeded in a 100 mm dish (1 × 10^6 cells per dish) in 5% CO2 at 37 °C in the appropriate culture medium. The cells with around 50% confluency were treated with compounds for 24 h. At the experiment day, cells were washed with 1x PBS, harvested and lysed in RIPA lysis buffer, combined with protease inhibitors, (Sigma-Aldrich, St. Louis, MO, USA) as described previously[39]). The total protein concentration was evaluated by the colorimetric Bradford protein assay (BIO-RAD inc, CA, USA) at 595 nm absorbance. Lysates were loaded in equal concentration and separated by sodium dodecyl sulfate-polyacrylamide gel electrophoresis (SDS-PAGE) and then transferred to a nitrocellulose membrane by semi-dry. Blocking of the membrane was done by 5% non-fat dried milk for one hour, incubated with the primary antibodies. The primary antibodies used were Bcl2 (cat. no. sc-7382), BclxL (cat. no. sc-8392) and β Actin (cat. no. sc-69879) from (Santa Cruz Biotechnology, Inc., Dallas, TX, USA). The secondary antibodies used were goat anti-mouse IgG-HRP (cat. no. sc-2005) and mouse anti-rabbit IgG-HRP (cat. no. sc-2357) from (Santa Cruz Biotechnology, Inc., Dallas, TX, USA). Detection was done with Luminol HRP chemiluminescence substrate (cat. no. sc-2048) from (Santa Cruz Biotechnology, Inc., Dallas, TX, USA) and then visualised by c-digit blot-scanner (LI-COR, Nebraska, USA).

[3] = test system: normal human skin fibroblast (HFF-1); test: MTT cell viability assay, normal fibroblast HFF-1; assay type: cell-based; conditions: 24 h
Method: as §1
The cytotoxicity effect of compounds on the colorectal cancer cell lines, HT29 and SW620 in addition to the normal human fibroblasts was measured by MTT (3–(4, 5-dimethylthiazol-2-yl)-2,5-diphenyltetrazolium bromide) (Sigma-Aldrich, St. Louis, MO, USA) as previously described. Briefly, cells were seeded in 96 well culture plates at 5000/well for HT29 and 10,000/well for SW620 for 24 h. Cells were then incubated with different compounds from WAG1 series (1–15) 24 h at 37 °C and humidified 5% CO2 incubator. […] The absorbance of the product was measured at 540 nm using a Synergy™ 2 multi-mode microplate reader (Biotech, VA, USA). […]

SW-620 cells = test: Annexin V-FITC/PI apoptosis assay (flow cytometry); assay type: cell-based, human; conditions: 24 h
Method: Induction of apoptosis was measured by Dead Cell Apoptosis Kit with Annexin V FITC and PI, for flow cytometry (Thermofischer scientific, OR, USA) according to the manufacturer’s instruction. As described previously (39), cells were seeded in a 6-well plate (3 × 10^5 cells per well) and treated with the various compound for 24 h. Both floating and adherent cells were harvested, pooled together, and incubated with Annexin V-FITC and PI for 15 min on ice in dark. The cells were analysed by BD FACSCalibur™ cell analyser (BD Biosciences, CA, USA) at an emission of 530 nm (FL1 channel) and >575 nm (FL3).

BclxL = test: Western blot of BclxL protein expression in SW-620 cells; assay type: cell-based, human; conditions: SW-620, two concentrations, 24 h, immunoblotting
Method: as §3

With `O=c1[nH]cc(F)c(=O)[nH]1` [Compound 5-FU, 5-Fluorouracil, reference compound] the pIC50 ([1]; Homo sapiens, HT-29, 72 h, MTT, 5FU 72 h, read-out: IC50 against HT-29) was 5.82, the IC50 ([1]; Homo sapiens, HT-29, MTT) was 4600 nM and the pIC50 ([2]; Homo sapiens, SW-620, 72 h, MTT, 5FU 72 h, read-out: IC50 against SW-620) was 5.34. It also gave an IC50 ([2]; Homo sapiens, SW-620, MTT) of 1500 nM.

`O=C1Nc2ccccc2C1=NNC(=O)c1c[nH]c2ccccc12` [Compound 7a, N'-(2-Oxoindolin-3-ylidene)-1H-indole-3-carbohydrazide] gave an IC50 ([1]; Homo sapiens, HT-29, MTT) of 408 nM, an IC50 ([2]; Homo sapiens, SW-620, MTT) of 145 nM and a melting point of 259 to 261 °C.

In the case of `O=C1Nc2ccc(F)cc2C1=NNC(=O)c1c[nH]c2ccccc12` [Compound 7b, N'-(5-Fluoro-2-oxoindolin-3-ylidene)-1H-indole-3-carbohydrazide], the IC50 ([1]; Homo sapiens, HT-29, MTT) was 611 nM, the IC50 ([2]; Homo sapiens, SW-620, MTT) was 175 nM and the melting point was > 300 °C.

In the case of `O=C1Nc2ccc(Cl)cc2C1=NNC(=O)c1c[nH]c2ccccc12` [Compound 7c, N'-(5-Chloro-2-oxoindolin-3-ylidene)-1H-indole-3-carbohydrazide], the IC50 ([1]; Homo sapiens, HT-29, MTT) was 188 nM, the IC50 ([1]; MTT) was 206 nM and the IC50 ([2]; Homo sapiens, SW-620, MTT) was 206 nM. The IC50 ([2]; MTT) was 188 nM, the Bcl2 protein expression (Bcl2) was “dose-dependent inhibition” and the “effect on cell viability of HFF-1” value [3] was “no/or little effect”. The “fold total apoptosis increase compared to the control” value (“fold total apoptosis increase” below) (SW-620 cells; SW-620, 250 nM) was “approximately 5.2 fold”, the “fold total apoptosis increase” value (SW-620 cells; SW-620, 500 nM) was ~10.66 fold and the BclxL protein expression (BclxL) was “dose-dependent inhibition”.

For `O=C1Nc2ccc(Br)cc2C1=NNC(=O)c1c[nH]c2ccccc12` [Compound 7d, N'-(5-Bromo-2-oxoindolin-3-ylidene)-1H-indole-3-carbohydrazide], the IC50 ([1]; Homo sapiens, HT-29, MTT) was 320 nM, the IC50 ([2]; Homo sapiens, SW-620, MTT) was 133 nM and the melting point was 247 to 249 °C.

In the case of `Cc1ccc2c(c1)C(=NNC(=O)c1c[nH]c3ccccc13)C(=O)N2` [Compound 7e, N'-(5-Methyl-2-oxoindolin-3-ylidene)-1H-indole-3-carbohydrazide], the IC50 ([1]; Homo sapiens, HT-29, MTT) was 335 nM, the IC50 ([2]; Homo sapiens, SW-620, MTT) was 253 nM and the melting point was 201 to 203 °C.

With `COc1ccc2c(c1)C(=NNC(=O)c1c[nH]c3ccccc13)C(=O)N2` [Compound 7f, N'-(5-Methoxy-2-oxoindolin-3-ylidene)-1H-indole-3-carbohydrazide] the IC50 ([1]; Homo sapiens, HT-29, MTT) was 142 nM, the IC50 ([2]; Homo sapiens, SW-620, MTT) was 37 nM and the melting point was 197 to 199 °C.

In the case of `O=C1Nc2ccc(OC(F)(F)F)cc2C1=NNC(=O)c1c[nH]c2ccccc12` [Compound 7g, N'-(2-Oxo-5-(trifluoromethoxy)indolin-3-ylidene)-1H-indole-3-carbohydrazide], the IC50 ([1]; Homo sapiens, HT-29, MTT) was 279 nM, the IC50 ([1]; MTT) was 299 nM and the IC50 ([2]; Homo sapiens, SW-620, MTT) was 299 nM. For the same molecule, the IC50 ([2]; MTT) was 279 nM, the Bcl2 protein expression (Bcl2) was “inhibit” and the “effect on cell viability of HFF-1” value [3] was “no/or little effect”. The “fold total apoptosis increase” value (SW-620 cells; SW-620, 250 nM) was “approximately 7.3 fold”, the “fold total apoptosis increase” value (SW-620 cells; SW-620, 500 nM) was ~9.6 fold and the BclxL protein expression (BclxL) was “inhibit”.

For `O=C1Nc2ccc([N+](=O)[O-])cc2C1=NNC(=O)c1c[nH]c2ccccc12` [Compound 7h, N'-(5-Nitro-2-oxoindolin-3-ylidene)-1H-indole-3-carbohydrazide], the IC50 ([1]; Homo sapiens, HT-29, MTT) was 132 nM, the “fold more active than 5FU against HT-29” value ([1]; ratio of IC50 values versus 5FU) was “approximately 35 fold” and the IC50 ([2]; Homo sapiens, SW-620, MTT) was 190 nM. The melting point was > 300 °C.

In the case of `O=C1Nc2c(F)cccc2C1=NNC(=O)c1c[nH]c2ccccc12` [Compound 7i, N'-(7-Fluoro-2-oxoindolin-3-ylidene)-1H-indole-3-carbohydrazide], the IC50 ([1]; Homo sapiens, HT-29, MTT) was 140 nM, the IC50 ([2]; Homo sapiens, SW-620, MTT) was 468 nM and the melting point was > 300 °C.

In the case of `Cc1cc(C)c2c(c1)C(=NNC(=O)c1c[nH]c3ccccc13)C(=O)N2` [Compound 7j, N'-(5,7-Dimethyl-2-oxoindolin-3-ylidene)-1H-indole-3-carbohydrazide], the IC50 ([1]; Homo sapiens, HT-29, MTT) was 200 nM, the IC50 ([2]; Homo sapiens, SW-620, MTT) was 187 nM and the melting point was > 300 °C.

Work on `CN1C(=O)C(=NNC(=O)c2c[nH]c3ccccc23)c2ccccc21` [Compound 9a, N'-(1-Methyl-2-oxoindolin-3-ylidene)-1H-indole-3-carbohydrazide] yielded an IC50 ([1]; Homo sapiens, HT-29, MTT) of 176 nM, an IC50 ([2]; Homo sapiens, SW-620, MTT) of 260 nM and a melting point of 273 to 275 °C.

Work on `CCCN1C(=O)C(=NNC(=O)c2c[nH]c3ccccc23)c2ccccc21` [Compound 9b, N'-(2-Oxo-1-propylindolin-3-ylidene)-1H-indole-3-carbohydrazide] yielded an IC50 ([1]; Homo sapiens, HT-29, MTT) of 525 nM, an IC50 ([2]; Homo sapiens, SW-620, MTT) of 105 nM and a melting point of 248 to 250 °C.

With `O=C(NN=C1C(=O)N(Cc2ccccc2)c2ccccc21)c1c[nH]c2ccccc12` [Compound 9c, N'-(1-Benzyl-2-oxoindolin-3-ylidene)-1H-indole-3-carbohydrazide] the IC50 ([1]; Homo sapiens, HT-29, MTT) was 405 nM, the IC50 ([2]; Homo sapiens, SW-620, MTT) was 283 nM and the melting point was 274 to 276 °C.

Molecule `CCCN1C(=O)C(=NNC(=O)c2c[nH]c3ccccc23)c2cc(Cl)ccc21` [Compound 9d, N'-(5-Chloro-2-oxo-1-propylindolin-3-ylidene)-1H-indole-3-carbohydrazide] has an IC50 ([1]; Homo sapiens, HT-29, MTT) of 166 nM, an IC50 ([2]; Homo sapiens, SW-620, MTT) of 290 nM and a melting point of 262 to 263 °C.

`CCCN1C(=O)C(=NNC(=O)c2c[nH]c3ccccc23)c2cc(Br)ccc21` [Compound 9e, N'-(5-Bromo-2-oxo-1-propylindolin-3-ylidene)-1H-indole-3-carbohydrazide] gave an IC50 ([1]; Homo sapiens, HT-29, MTT) of 290 nM, an IC50 ([2]; Homo sapiens, SW-620, MTT) of 414 nM and a melting point of 255 to 256 °C.
